Where two headings read alike, the source gives them in different places.
Key:
[1] = system: SDH-WT cells; experiment: Cellular / differential toxicity assay (CellTiter-Glo, 3 days); format: cell-based, murine; settings: toxicity, SDH-WT cells, 3 days, CellTiter-Glo, read-out: EC50 (uM) SDH-WT
Outline: (§1)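 Isogenic SDHB-deficient (HRAS-transformed SDH-KO) and SDH-WT cells grown in DMEM-F12 with 1 mM glutamine and 3% FBS, plated with compound (10-point dilution from 10 uM to 0.0065 uM or lower) for 3 days at 37 °C, 5% CO2. Viability by CellTiter-Glo luminescence; EC50 calculated.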

[2] = system: SDH-KO-HRAS cells (SDHB-deficient); experiment: as above; format: cell-based, murine; settings: toxicity, SDH-KO cells, 3 days, CellTiter-Glo, read-out: EC50 (uM) SDH-KO-HTAS-C17
Outline: as §1

Row | SMILES | EC50 ([1]; Mus musculus, 72 h) [µM] | EC50 ([2]; Mus musculus, 72 h) [µM] | EC50 [1] [µM] | EC50 [2] [µM]
1 | CC1(C)Cc2nc3sc4c(N(CCO)Cc5ccccc5)ncnc4c3cc2CO1 [Compound 271] | 3 to 10 | > 10 |  | 
2 | Cc1nc(NC(C)c2ccccc2)c2sc3nc4c(cc3c2n1)COC(C)(C)C4 (stereo not drawn) [Compound 272] | > 10 | > 10 |  | 
3 | COc1ccc(CCNc2nc(C)nc3c2sc2nc4c(cc23)COC(C)(C)C4)cc1OC [Compound 273] | > 10 | 3 to 10 |  | 
4 | CC(Nc1ncnc2c1sc1nc3c(cc12)COC(C)(C)C3)c1ccccc1 (stereo not drawn) [Compound 274] | > 10 | > 10 |  | 
5 | CC1(C)Cc2nc3sc4c(N(CCO)CCO)ncnc4c3cc2CO1 [Compound 275] | > 10 | > 10 |  | 
6 | CC(Cc1ccccc1)Nc1ncnc2c1sc1nc3c(cc12)COC(C)(C)C3 (stereo not drawn) [Compound 276] | 3 to 10 | > 10 |  | 
7 | CC1(C)Cc2nc3sc4c(NCc5cccnc5)ncnc4c3cc2CO1 [Compound 277] | > 10 | > 10 |  | 
8 | CN(CCO)c1ncnc2c1sc1nc3c(cc12)COC(C)(C)C3 [Compound 278] | > 10 | > 10 |  | 
9 | CC1(C)Cc2nc3sc4c(N5CCC(Cc6ccccc6)CC5)ncnc4c3cc2CO1 [Compound 279] | > 10 | > 10 |  | 
10 | CCN1CCN(c2ncnc3c2sc2nc4c(cc23)COC(C)(C)C4)CC1 [Compound 280] | > 10 | > 10 |  | 
11 | COCCCNc1ncnc2c1sc1nc3c(cc12)COC(C)(C)C3 [Compound 281] | > 10 | 3 to 10 |  | 
12 | CC1CCCCN1c1ncnc2c1sc1nc3c(cc12)COC(C)(C)C3 (stereo not drawn) [Compound 282] | > 10 | > 10 |  | 
13 | COCCNc1ncnc2c1sc1nc3c(cc12)COC(C)(C)C3 [Compound 283] | > 10 | > 10 |  | 
14 | CC1(C)Cc2nc3sc4c(NCCOCCO)ncnc4c3cc2CO1 [Compound 284] | > 10 | > 10 |  | 
15 | CC(O)CN(CC(C)O)c1ncnc2c1sc1nc3c(cc12)COC(C)(C)C3 (stereo not drawn) [Compound 285] | > 10 | > 10 |  | 
16 | CC1(C)Cc2nc3sc4c(N5CCN(C(c6ccccc6)c6ccccc6)CC5)ncnc4c3cc2CO1 [Compound 286] | > 10 | > 10 |  | 
17 | CCN(CC)CCCNc1ncnc2c1sc1nc3c(cc12)COC(C)(C)C3 [Compound 287] | > 10 | > 10 |  | 
18 | CC1(C)Cc2nc3sc4c(N5CCN(CCO)CC5)ncnc4c3cc2CO1 [Compound 288] | > 10 | > 10 |  | 
19 | CCN(CCO)c1ncnc2c1sc1nc3c(cc12)COC(C)(C)C3 [Compound 289] | > 10 | 3 to 10 |  | 
20 | CC1(C)Cc2nc3sc4c(NCCCN5CCOCC5)ncnc4c3cc2CO1 [Compound 290] | > 10 | > 10 |  | 
21 | CCC(CO)Nc1ncnc2c1sc1nc3c(cc12)COC(C)(C)C3 (stereo not drawn) [Compound 291] | > 10 | > 10 |  | 
22 | CN(Cc1ccccc1)c1ncnc2c1sc1nc3c(cc12)COC(C)(C)C3 [Compound 292] | > 10 | > 10 |  | 
23 | CC1(C)CCc2cc3c(nc2C1)sc1c(CCC2(c4ccccc4)CCCC2)cccc13 [Compound 293] | > 10 | > 10 |  | 
24 | CCCCNc1ncnc2c1sc1nc3c(cc12)COC(C)(C)C3 [Compound 294] |  |  | > 10 | > 10
25 | CC1(C)Cc2nc3sc4c(NN)ncnc4c3cc2CO1 [Compound 295] | > 10 | > 10 |  | 
26 | C=CCNc1ncnc2c1sc1nc3c(cc12)COC(C)(C)C3 [Compound 296] |  |  | > 10 | 3 to 10

Row | SMILES | EC50 ([1]; Mus musculus, 72 h) [µM] | EC50 ([2]; Mus musculus, 72 h) [µM] | EC50 [1] [µM] | EC50 [2] [µM]
27 | CCN(CC)c1ncnc2c1sc1nc3c(cc12)COC(C)(C)C3 [Compound 297] | > 10 | 3 to 10 |  | 
28 | CC1(C)Cc2nc3sc4c(N5CCCC5)ncnc4c3cc2CO1 [Compound 298] | > 10 | > 10 |  | 
29 | CCC(C)Nc1ncnc2c1sc1nc3c(cc12)COC(C)(C)C3 (stereo not drawn) [Compound 299] | > 10 | > 10 |  | 
30 | CCCN(CCC)c1ncnc2c1sc1nc3c(cc12)COC(C)(C)C3 [Compound 300] | 3 to 10 | 3 to 10 |  | 
31 | COc1ccc(CCn2cnc3c(sc4nc5c(cc43)COC(C)(C)C5)c2=O)cc1F [Compound 301] | > 10 | > 10 |  | 
32 | CCOC(=O)C1CCc2nc3sc4c(NCCc5ccc(OC)c(F)c5)ncnc4c3cc2C1 (stereo not drawn) [Compound 302] | > 10 | > 10 |  | 
33 | COc1ccc(CCNc2ncnc3c2sc2nc4c(cc23)COCC4)cc1F [Compound 303] | > 10 | < 1 |  | 
34 | CN1C(=O)CCC1n1cnc2ccc(CCNc3ncnc4c3sc3nc5c(cc34)COC(C)(C)C5)cc21 (stereo not drawn) [Compound 304] | 3 to 10 | < 1 |  | 
35 | COCCOCCOCCOCc1c2c(nc3sc4c(NCCc5ccc6[nH]cnc6c5)ncnc4c13)CC(C)(C)OC2 [Compound 305] | > 10 | < 1 |  | 
36 | CC1(C)Cc2nc3sc4c(NCCc5ccc6[nH]cnc6c5)ncnc4c3c(CO)c2CO1 [Compound 306] | > 10 | > 10 |  | 
37 | c1ccc(-c2nc(NCCc3ccc4[nH]cnc4c3)c3sc4ncccc4c3n2)cc1 [Compound 307, N-(2-(1H-Benzo[d]imidazol-5-yl)ethyl)-2-phenylpyrido[3′,2′:4,5]thieno[3,2-d]pyrimidin-4-amine] | 3 to 10 | > 10 |  | 
38 | Cc1nc(NCCc2ccc3[nH]cnc3c2)c2sc3ncccc3c2n1 [Compound 309, N-(2-(1H-Benzo[d]imidazol-5-yl)ethyl)-2-methylpyrido[3′,2′:4,5]thieno[3,2-d]pyrimidin-4-amine] | > 10 | 3 to 10 |  | 
39 | c1cnc2sc3c(NCCc4ccc5[nH]cnc5c4)nc(C4CCCCC4)nc3c2c1 [Compound 310, N-(2-(1H-Benzo[d]imidazol-5-yl)ethyl)-2-cyclohexylpyrido[3′,2′:4,5]thieno[3,2-d]pyrimidin-4-amine] | > 10 | > 10 |  | 
40 | CC(C)c1nc(NCCc2ccc3[nH]cnc3c2)c2sc3nc4c(cc3c2n1)COC(C)(C)C4 [Compound 311] | > 10 | 1 to 3 |  | 
41 | CC(C)c1nc(NCCc2ccc3[nH]cnc3c2)c2sc3ncccc3c2n1 [Compound 312, N-(2-(1H-Benzo[d]imidazol-5-yl)ethyl)-2-isopropylpyrido[3′,2′:4,5]thieno[3,2-d]pyrimidin-4-amine] | 3 to 10 | 3 to 10 |  | 
42 | Cc1nc(NCCc2ccc3[nH]cnc3c2)c2sc3nc4c(cc3c2n1)COC(C)(C)C4 [Compound 313] | 3 to 10 | 3 to 10 |  | 
43 | CCCc1nc(NCCc2ccc3[nH]cnc3c2)c2sc3nc4c(cc3c2n1)COC(C)(C)C4 [Compound 314] | 3 to 10 | 3 to 10 |  | 
44 | CC1(C)Cc2nc3sc4c(NCCc5ccc6[nH]cnc6c5)nc(-c5ccccc5)nc4c3cc2CO1 [Compound 315] | 3 to 10 | 1 to 3 |  | 
45 | c1cnc2sc3c(NCCc4ccc5[nH]cnc5c4)nc(C4CCCC4)nc3c2c1 [Compound 316, N-(2-(1H-Benzo[d]imidazol-5-yl)ethyl)-2-cyclopentylpyrido[3′,2′:4,5]thieno[3,2-d]pyrimidin-4-amine] | 3 to 10 | 3 to 10 |  | 
46 | COCCOCCOCCOCCNC(=O)c1c2c(nc3sc4c(NCCc5ccc6[nH]cnc6c5)ncnc4c13)CC(C)(C)OC2 [Compound 317, 4-((2-(1H-Benzo[d]imidazol-5-yl)ethyl)amino)-8,8-dimethyl-N-(2,5,8,11-tetraoxatridecan-13-yl)-7,10-dihydro-8H-pyrano[3″,4″:5′,6′]pyrido[3′,2′:4,5]thieno[3,2-d]pyrimidine-11-carboxamide] | 3 to 10 | 3 to 10 |  | 
47 | CC1(C)Cc2nc3sc4c(NCCc5ccc6[nH]cnc6c5)ncnc4c3c(-c3cncs3)c2CO1 [Compound 318] | < 1 | < 1 |  | 
48 | CSCc1c2c(nc3sc4c(NCCc5ccc6[nH]cnc6c5)ncnc4c13)CC(C)(C)OC2 [Compound 319, N-(2-(1H-Benzo[d]imidazol-5-yl)ethyl)-8,8-dimethyl-11-((methylthio)methyl)-7,10-dihydro-8H-pyrano[3″,4″:5′,6′]pyrido[3′,2′:4,5]thieno[3,2-d]pyrimidin-4-amine] | 1 to 3 | < 1 |  | 
49 | COCCOCCOCCNCc1c2c(nc3sc4c(NCCc5ccc6[nH]cnc6c5)ncnc4c13)CC(C)(C)OC2 [Compound 320, N-(2-(1H-Benzo[d]imidazol-5-yl)ethyl)-11-(5,8,11-trioxa-2-azadodecyl)-8,8-dimethyl-7,10-dihydro-8H-pyrano[3″,4″:5′,6′]pyrido[3′,2′:4,5]thieno[3,2-d]pyrimidin-4-amine] | 3 to 10 | 3 to 10 |  | 
50 | COCCOCCOCCOCCNCc1c2c(nc3sc4c(NCCc5ccc6[nH]cnc6c5)ncnc4c13)CC(C)(C)OC2 [Compound 321, N-(2-(1H-Benzo[d]imidazol-5-yl)ethyl)-8,8-dimethyl-11-(5,8,11,14-tetraoxa-2-azapentadecyl)-7,10-dihydro-8H-pyrano[3″,4″:5′,6′]pyrido[3′,2′:4,5]thieno[3,2-d]pyrimidin-4-amine] | 3 to 10 | 1 to 3 |  | 
51 | CC1(C)Cc2nc3sc4c(NCCc5ccc6[nH]cnc6c5)ncnc4c3c(COc3ccccc3)c2CO1 [Compound 322, N-(2-(1H-Benzo[d]imidazol-5-yl)ethyl)-8,8-dimethyl-11-(phenoxymethyl)-7,10-dihydro-8H-pyrano[3″,4″:5′,6′]pyrido[3′,2′:4,5]thieno[3,2-d]pyrimidin-4-amine] | < 1 | < 1 |  | 

— patent publication US20230084927A1, “GLUCOSE UPTAKE INHIBITORS AND USES THEREOF” (METABOMED LTD., priority 2019, published 2023)
